Assays:
[1] = log P by HPLC on reversed-phase column (EEC directive 79/831 Annex V.A8); format: physicochemical; conditions: for log p a): HPLC on reversed-phase column; for log p: HPLC on reversed-phase column (footnote a)
Procedure, shortened: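 Determined per EEC directive 79/831 Annex V.A8 by HPLC on a reversed-phase C18 column at 43° C.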

Myzus persicae [2] = test: Myzus persicae oral test; format: in vivo; conditions: application rate 20 ppm, oral uptake through parafilm, after 5 days
Procedure, shortened: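 Compound dissolved in acetone, diluted with water, then mixed into IPL41 insect medium with sugar in microtitre plates under parafilm. Mixed-population green peach aphids fed through the membrane; % mortality scored after 5 days (100% = all killed).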

Ctenocephalides felis = Ctenocephalides felis in vitro contact test with adult cat fleas; format: in vivo; conditions: application rate 5 μg/cm^2, after 48 h, adult cat fleas dead or moribund
Protocol: Ctenocephalides felis—In Vitro Contact Tests with Adult Cat Fleas
For the coating of the test tubes, 9 mg of active ingredient are first dissolved in 1 ml of acetone p.a. and then diluted to the desired concentration with acetone p.a. 250 μl of the solution are distributed homogeneously on the inner walls and the base of a 25 ml test tube by turning and rocking on an orbital shaker (rocking rotation at 30 rpm for 2 h). With 900 ppm of active ingredient solution and internal surface area 44.7 cm^2, given homogeneous distribution, an area-based dose of 5 μg/cm^2 is achieved.
After the solvent has evaporated off, the tubes are populated with 5-10 adult cat fleas (Ctenocephalides felis), sealed with a perforated plastic lid and incubated in a horizontal position at room temperature and ambient humidity. After 48 h, efficacy is determined. To this end, the test tubes are stood upright and the fleas are knocked to the base of the tube. Fleas which remain motionless at the base or move in an uncoordinated manner are considered to be dead or moribund.
100% efficacy means that all the fleas were dead or moribund. 0% efficacy means that no fleas were harmed.

Diabrotica balteata = Diabrotica balteata spray test; format: in vivo; conditions: application rate 160 μg/well, wheat grains with beetle larvae, after 7 days
Protocol: Diabrotica balteata—Spray Test Solvent: 78 parts by weight of acetone • • 1.5 parts by weight of dimethylformamide Emulsifier: alkylaryl polyglycol ether
(§1) To produce a suitable active ingredient formulation, 1 part by weight of active ingredient is dissolved with the stated parts by weight of solvent and made up with water containing an emulsifier concentration of 1000 ppm until the desired concentration is attained. To produce further test concentrations, the formulation is diluted with emulsifier-containing water.
Pre-swollen wheat grains (Triticum aestivum) are incubated in a multiwell plate filled with agar and a little water for one day (5 seed grains per cavity). The germinated wheat grains are sprayed with an active ingredient formulation of the desired concentration. Subsequently, each cavity is infected with 10-20 beetle larvae of Diabrotica balteata.
After 7 days, the efficacy in % is determined. 100% means that all wheat plants have grown as in the untreated, uninfected control; 0% means that no wheat plant has grown.

Lucilia cuprina = Lucilia cuprina test; format: in vivo; conditions: application rate 100 ppm, L1 larvae, after 2 days
Protocol: Lucilia cuprina Test Solvent: dimethyl sulphoxide
To produce a suitable active ingredient formulation, 10 mg of active ingredient are mixed with 0.5 ml of dimethyl sulphoxide, and the concentrate is diluted with water to the desired concentration.
About 20 L1 larvae of the Australian sheep blowfly (Lucilia cuprina) are transferred into a test vessel containing minced horsemeat and the active ingredient formulation of the desired concentration.
After 2 days, the kill in % is determined. 100% means that all the larvae have been killed; 0% means that no larvae have been killed.

Boophilus microplus = Boophilus microplus injection test; format: in vivo; conditions: application rate 20 μg/animal, assessed after 7 days by laying of fertile eggs
Protocol: Boophilus microplus—Injection Test Solvent: dimethyl sulphoxide
To produce a suitable active ingredient formulation, 10 mg of active ingredient are mixed with 0.5 ml of solvent and the concentrate is diluted with solvent to the desired concentration.
1 μl of the active ingredient solution is injected into the abdomen of 5 engorged adult female cattle ticks (Boophilus microplus). The animals are transferred into dishes and kept in a climate-controlled room.
Efficacy is assessed after 7 days by laying of fertile eggs. Eggs which are not visibly fertile are stored in a climate-controlled cabinet until the larvae hatch after about 42 days. An efficacy of 100% means that none of the ticks has laid any fertile eggs; 0% means that all the eggs are fertile.

Myzus persicae [3] = test: Myzus persicae spray test (Chinese cabbage leaf discs); format: in vivo; conditions: application rate 500 g/ha, after 6 days
Procedure, shortened: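 Active ingredient was formulated in acetone/DMF and diluted with water containing 1000 ppm emulsifier. Chinese cabbage leaf discs infested with all aphid stages were sprayed, and % kill was scored after 6 days (100% = all aphids dead).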

Meloidogyne incognita = Meloidogyne incognita test; format: in vivo; conditions: application rate 20 ppm, formation of galls on lettuce after 14 days
Protocol: Meloidogyne incognita Test Solvent: 125.0 parts by weight of acetone
To produce a suitable preparation of active ingredient, 1 part by weight of active ingredient is mixed with the stated amount of solvent and the concentrate is diluted with water to the desired concentration.
Vessels are filled with sand, active ingredient solution, an egg/larvae suspension of the southern root-knot nematode (Meloidogyne incognita) and lettuce seeds. The lettuce seeds germinate and the plants develop. The galls develop on the roots.
After 14 days, the nematicidal efficacy in % is determined by the formation of galls. 100% means that no galls were found; 0% means that the number of galls on the treated plants corresponds to the untreated control.

Myzus persicae [4] = test: Myzus persicae spray test (bell pepper plants); format: in vivo; conditions: application rate 100 ppm, after 6 days
Protocol: Myzus persicae—Spray Test Solvent: 14 parts by weight of dimethylformamide Emulsifier: alkylaryl polyglycol ether
as §1, with “water. If the addition of ammonium salts or/and penetrants is required, these are each added in a concentration of 1000 ppm to the formulation solution.” for “water.”
Bell pepper plants (Capsicum annuum) severely infested with the green peach aphid (Myzus persicae) are treated by spraying with the active ingredient formulation in the desired concentration.
After 6 days, the kill in % is determined. 100% means that all of the aphids have been killed; 0% means that none of the aphids have been killed.

Phaedon cochleariae = Phaedon cochleariae spray test; format: in vivo; conditions: application rate 500 g/ha, Chinese cabbage leaf discs, larvae, after 7 days
Protocol: Phaedon cochleariae—Spray Test Solvent: 78.0 parts by weight of acetone • • 1.5 parts by weight of dimethylformamide Emulsifier: alkylaryl polyglycol ether
as §1
Discs of Chinese cabbage leaves (Brassica pekinensis) are sprayed with an active ingredient formulation of the desired concentration and, after drying, populated with larvae of the mustard beetle (Phaedon cochleariae).
After 7 days, the efficacy in % is determined. 100% means that all the beetle larvae have been killed; 0% means that no beetle larvae have been killed.

Structure (SMILES) | log p a) [1] | efficacy (Myzus persicae [2]) | efficacy (Ctenocephalides felis) | efficacy (Diabrotica balteata) | efficacy (kill in %) (Lucilia cuprina) | efficacy (Boophilus microplus) | efficacy (Myzus persicae [3]) | log p [1] | nematicidal efficacy (Meloidogyne incognita) | efficacy (kill in %) (Myzus persicae [4]) | efficacy (Phaedon cochleariae)
COc1ccc[n+]2c(C(=O)NC3CC3)c([O-])n(Cc3cnc(Cl)s3)c12 [Example I-1-240] | 1.96 | 100% | 100% | – | – | – | – | – | – | – | –
CC(c1cnc(Cl)s1)n1c([O-])c(C(=O)NC2CC2)[n+]2ccccc12 (centres unmarked) [Example I-1-254] | 1.94 | 100% | – | 100% | 100% | 80% | 90% | – | – | – | –
Cc1ccc(Cn2c([O-])c(C(=O)NC3CC3)[n+]3ccccc23)cn1 [Example I-1-243] | 0.81 | 100% | 100% | – | – | – | – | – | – | – | –
O=C(NCC1CC1)c1c([O-])n(Cc2cnc(Cl)s2)c2cccc[n+]12 [Example I-1-143] | – | – | 100% | 100% | – | – | – | 1.99 | 90% | – | –
Cc1cccc(C)c1NC(=O)c1c([O-])n(Cc2cnc(Cl)s2)c2cccc[n+]12 [Example I-1-321] | 2.76 | 100% | – | – | – | – | – | – | 90% | – | –
Cc1ccn(CC(=O)c2c([O-])n(Cc3cnc(Cl)s3)c3cccc[n+]23)n1 [Example I-1-012] | – | 100% | – | – | – | 100% | 90% | 1.63 | – | – | –
O=C(Nc1c(Cl)cccc1Cl)c1c([O-])n(Cc2ccc(Cl)nc2)c2cccc[n+]12 [Example I-1-314] | 2.59 | 100% | – | – | – | – | 100% | – | 90% | – | –
CSc1ccn(CC(=O)c2c([O-])n(Cc3ccc(Cl)nc3)c3cccc[n+]23)n1 [Example I-1-054] | – | 100% | – | – | – | 100% | 100% | 1.35 | – | – | –
COCC(=O)c1c([O-])n(Cc2ccc(Cl)nc2)c2ccc(F)c[n+]12 [Example I-1-165] | – | 100% | – | – | – | 100% | 90% | 1.39 | – | – | –
O=C(NC1CC1)c1c([O-])n(Cc2cncnc2)c2cccc[n+]12 [Example I-1-152] | – | 100% | – | – | – | 80% | 90% | 0.84 | – | – | –
CCOCC(=O)c1c([O-])n(Cc2ccc(Cl)nc2)c2c(Cl)ccc[n+]12 [Example I-1-116] | – | 100% | – | – | – | – | – | 1.78 | 90% | – | –
CC(c1ccc(Cl)nc1)n1c([O-])c(C(=O)NC2CC2)[n+]2ccccc12 (centres unmarked) [Example I-1-202] | 1.75 | 100% | – | 80% | 100% | 80% | – | – | – | 90% | –
O=C(Nc1c(F)cccc1Cl)c1c([O-])n(Cc2ccc(Cl)nc2)c2cccc[n+]12 [Example I-1-316] | 2.44 | 100% | – | – | – | – | 100% | – | 90% | – | –
COC(=O)c1c([O-])n(C(C)c2cnc(Cl)s2)c2cccc[n+]12 (centres unmarked) [Example I-1-262] | 1.45 | – | – | – | – | – | – | – | – | – | 83%
O=C(Nc1ccccc1)c1c([O-])n(Cc2cnc(Cl)s2)c2cccc[n+]12 [Example I-1-145] | – | 100% | – | 100% | 100% | – | – | 2.73 | – | 100% | –
CC(C)CNC(=O)c1c([O-])n(Cc2cnc(Cl)s2)c2cccc[n+]12 [Example I-1-147] | – | 100% | 80% | 100% | – | – | – | 2.29 | 90% | 100% | –
Cc1ccc[n+]2c(C(=O)Nc3c(F)cccc3Cl)c([O-])n(Cc3cnc(Cl)s3)c12 [Example I-1-276] | 2.93 | 100% | – | 100% | – | – | 90% | – | 90% | – | –
Cc1ccc[n+]2c(C(=O)NCc3ccc(Cl)cc3)c([O-])n(Cc3ccc(Cl)nc3)c12 [Example I-1-176] | – | – | – | – | – | – | – | 2.92 | 90% | – | –
CC(C)OCC(=O)c1c([O-])n(Cc2ccc(Cl)nc2)c2cccc[n+]12 [Example I-1-016] | – | 100% | – | – | – | 100% | 100% | 1.67 | – | – | –
COc1cccc(F)c1NC(=O)c1c([O-])n(Cc2cnc(Cl)s2)c2cccc[n+]12 [Example I-1-323] | 2.27 | 100% | – | – | – | – | – | – | 90% | – | –
O=C(NC1CC1)c1c([O-])n(Cc2ccc(Cl)nc2)c2c(OC(F)(F)F)ccc[n+]12 [Example I-1-196] | – | – | – | – | – | – | – | 2.33 | 90% | – | –
CC(c1ccc(Cl)nc1)n1c([O-])c(C(=O)CCl)[n+]2ccccc12 (centres unmarked) [Example I-1-161] | – | 100% | – | – | – | – | – | 1.75 | 90% | – | –
Cc1cnc(Cn2c([O-])c(C(=O)NC3CC3)[n+]3ccccc23)cn1 [Example I-1-217] | 1.13 | 100% | – | – | – | 80% | 100% | – | – | – | –
CCOCC(=O)c1c([O-])n(Cc2ccc(Cl)nc2)c2cccc[n+]12 [Example I-1-020] | – | 100% | – | 100% | – | 80% | 90% | 1.39 | – | – | –
Cc1ccccc1NC(=O)c1c([O-])n(Cc2cnc(Cl)s2)c2cccc[n+]12 [Example I-1-239] | 3.03 | 100% | 100% | – | – | – | – | – | – | – | –
Cc1cnn(CC(=O)c2c([O-])n(Cc3cnc(Cl)s3)c3cccc[n+]23)c1 [Example I-1-049] | – | 100% | – | – | 100% | 80% | 90% | 1.72 | – | – | –

Source: patent publication US20180282323A1, “Mesoionic imidazole derivatives as insecticides” (BAYER CROPSCIENCE AKTIENGESELLSCHAFT, priority 2015, published 2018)
